Structures can show the parent of a compound that is named as a salt.

In patent US20120264755A1, “PYRIDINYL DERIVATIVES AS INHIBITORS OF ENZYME NICOTINAMIDE PHOSPHORIBOSYLTRANSFERASE” (TopoTarget, priority 2009, published 2012) one finds IC50 data, which are given here for 37 molecules.

In this assay the test system is A2780 cells. Nature of the assay: In vitro cell proliferation assay (WST-1 assay). The assay is classed as cell-based. The note with it: Homo sapiens, total incubation time 72 h, WST-1 readout. The procedure: A2780 cells were seeded in 96-well plates at 3×10^3 cells/well in 100 μL of culture medium, 8 wells were left empty for media only controls.
After 24 h the compound titrations were performed, in a separate dilution plate, by serially diluting the compounds of general formula (I) in culture medium. A 100 μL of each dilution was added to the plated cells, this was done in triplicate, and controls (e.g. DMSO and blanks) were included. The plates were incubated for 24 h at 37° C. in a CO2 incubator. The compound titrations were repeated in a separate dilution plate after 24 h. The media plus compound from the assay plates were then aspirated. A 100 μL of media was then added to all wells, followed by 100 μL of each compound dilution. The plates were incubated for a further 48 h at 37° C. in a CO2 incubator (total incubation time 72 h). The number of viable cells was then assessed using Cell Proliferation Reagent WST-1. 10 μL of WST-1 reagent added to each well and incubated for one to four hours at 37° C. in CO2 incubator. The absorbance was measured (450 nm/690 nm).
The activity of compounds of general formula (I) in reducing the number of viable cells was calculated as:
% activity=[(S^c−B)/(S^o−B)]×100
S^c denotes signal measured in the presence of test compound, S^o denotes signal detected in the absence of compound, and B denotes background signal, measured in blank wells containing medium only. Analyse data using GraphPad Prism.
With `CCNC(=O)N(CCCCCCN/C(=N\C#N)Nc1ccncc1)OCC1CCCCC1` [Compound 1114, 1-(6-(2-cyano-3-(pyridin-4-yl)guanidino)hexyl)-1-(cyclohexylmethoxy)-3-ethylurea], the IC50 was found to be 0.057 nM. That is a picomolar value.

`N#C/N=C(\NCCCCCCCN(OC1CCCCO1)S(=O)(=O)Cc1ccccc1)Nc1ccncc1` (stereo not shown) [Compound 1055] displayed an IC50 of 0.025 nM.

`CS(=O)(=O)N(CCCCCCCCN/C(=N\C#N)Nc1ccncc1)OCc1ccccc1` [Compound 1020] came in with an IC50 of 0.018 nM.

Molecule `O=C(NCCCCCCCCN(CCCN1CCOCC1)S(=O)(=O)c1ccccc1)NCc1cccnc1` [Compound 1037] came in with a half-inhibitory concentration (IC50) of 0.002 nM.

Molecule `O=C(/C=C/c1cccnc1)NCCCCCCCCN(CCCN1CCOCC1)C(=O)c1ccccc1` [Compound 1074, (E)-N-(3-morpholinopropyl)-N-(8-(3-(pyridin-3-yl)acrylamido)octyl)benzamide] gave an IC50 of 0.6 nM.

As for `CC(C)NC(=O)N(CCCCCCN/C(=N\C#N)Nc1ccncc1)OCC1CCCCC1` [Compound 1115, 1-(6-(2-cyano-3-(pyridin-4-yl)guanidino)hexyl)-1-(cyclohexylmethoxy)-3-isopropylurea], it took 0.033 nM to reach half-maximal inhibition (IC50).

As to `N#C/N=C(\NCCCCCCCCN(CCCN1CCOCC1)C(=S)Nc1ccccc1)Nc1ccncc1` [Compound 1094, 1-(8-(2-cyano-3-(pyridin-4-yl)guanidino)octyl)-1-(3-morpholinopropyl)-3-Phenylthiourea], the IC50 was found to be 0.036 nM. The IC50 values of the last two molecules are within 1.5-fold of each other.

Molecule `CP(C)(=O)N(CCCCCCCCN/C(=N\C#N)Nc1ccncc1)CCCN1CCOCC1` [Compound 1088, 2-Cyano-1-(8-((dimethylphosphoryl)(3-morpholinopropyl)amino)octyl)-3-(pyridin-4-yl)guanidine] gave an IC50 of 5.65 nM.

Take `CCN(CCCCCCCCNC(=O)NCc1cccnc1)OCc1ccccc1` [Compound 1081, 1-(8-(benzyloxy(ethyl)amino)octyl)-3-(pyridin-3-ylmethyl)urea oxalate]: half-maximal inhibition (IC50) required 0.55 nM.

`CCS(=O)(=O)N(CCCCCN/C(=N\C#N)Nc1ccncc1)OCC1CCCCC1` [Compound 1144] gave an IC50 of 0.037 nM.

Molecule `O=C(NCCCCCCN(CCCN1CCOCC1)S(=O)(=O)C1CCCC1)NCc1cccnc1` [Compound 1046] yielded an IC50 of 0.38 nM.

The molecule `O=C(c1ccccc1)N(CCCCCCCCNc1c(Nc2ccncc2)c(=O)c1=O)CCCN1CCOCC1` [Compound 1072, N-(8-(3,4-dioxo-2-(pyridin-4-ylamino)cyclobut-1-enylamino)octyl)-N-(3-morpholinopropyl)benzamide] displayed a concentration for half-maximal inhibition (IC50) of 0.17 nM.

In turn, `N#C/N=C(\NCCCCCCCCN(CCCN1CCOCC1)C1CCCCC1)Nc1ccncc1` [Compound 1001] showed an IC50 of 0.49 nM.

`CCS(=O)(=O)N(CCCCCCCNC(=O)Nc1ccncc1)OCC1CCCCC1` [Compound 1064, N-(cyclohexylmethoxy)-N-(7-(3-(pyridin-4-yl)ureido)heptyl)ethanesulfonamide]: half-maximal inhibition (IC50) required 0.44 nM.

`N#C/N=C(\NCCCCCCCN(CCCN1CCOCC1)C1CCCCC1)Nc1ccncc1` [Compound 1002, 2-cyano-1-(7-(cyclohexyl(3-morpholinopropyl)amino)heptyl)-3-(pyridin-4-yl)guanidine]: the IC50 is 2.03 nM.

With `N#CN=C(NCCCCCCOc1ccc(Cl)cc1)Nc1ccncc1` [CHS828, 1-(6-(4-chlorophenoxy)hexyl)-2-cyano-3-(pyridine-4-yl)guanidine, reference compound], the IC50 was 0.52 nM.

For `CS(=O)(=O)N(CCCCCCN/C(=N\C#N)Nc1ccncc1)OCC1CCCCC1` [Compound 1112, N-(6-(2-cyano-3-(pyridin-4-yl)guanidino)hexyl)-N-(cyclohexylmethoxy)methanesulfonamide], inhibition was half-maximal at 0.086 nM (IC50).

`O=c1c(NCCCCCCCN(CCF)S(=O)(=O)C2CCCCC2)c(Nc2ccncc2)c1=O` [Compound 1099, N-(7-(3,4-dioxo-2-(pyridin-4-ylamino)cyclobut-1-enylamino)heptyl)-N-(2-fluoroethyl)cyclohexanesulfonamide] gave an IC50 of 0.43 nM.

`N#C/N=C(\NCCCCCCCCN(CCCN1CCOCC1)S(=O)(=O)c1ccccc1)Nc1ccncc1` [Compound 1035, N-(8-(2-cyano-3-(pyridin-4-yl)guanidino)octyl)-N-(3-morpholinopropyl)benzenesulfonamide] came in with an IC50 of 0.042 nM.

Consider `CCNC(=O)N(CCCCCCCCN/C(=N\C#N)Nc1ccncc1)OCC1CCCCC1` [Compound 1125, 1-(8-(2-cyano-3-(pyridin-4-yl)guanidino)octyl)-N-(cyclohexylmethoxy)-3-ethylurea], for which half-maximal inhibition (IC50) required 0.057 nM.

Turning to `O=C(NCCCCCCCN(OC1CCCCO1)S(=O)(=O)Cc1ccccc1)NCc1cccnc1` (stereo not shown) [Compound 1057, 1-Phenyl-N-(7-(3-(pyridin-3-ylmethyl)ureido)heptyl)-N-(tetrahydro-2H-pyran-2-yloxy)methanesulfonamide], the IC50 was 0.37 nM.

With `CC(C)S(=O)(=O)N(CCCCCCCCN/C(=N\C#N)Nc1ccncc1)OCc1ccccc1` [Compound 1024], half-maximal inhibition (IC50) required 0.047 nM.

As to `CNC(=S)N(CCCCCCN/C(=N\C#N)Nc1ccncc1)OCC1CCCCC1` [Compound 1116, 1-(6-(2-cyano-3-(pyridin-4-yl)guanidino)hexyl)-1-(cyclohexylmethoxy)-3-methylthiourea], the IC50 amounted to 0.056 nM.

As for `N#C/N=C(\NCCCCCCCCNOCC1CCCCC1)Nc1ccncc1` [Compound 1107, 2-cyano-1-(8-(cyclohexylmethoxyamino)octyl)-3-(pyridin-4-yl)guanidine], the midpoint of inhibition, the IC50, lay at 0.57 nM. Compared with the last molecule, the IC50 is about 10-fold higher.

`N#C/N=C(\NCCCCCCCCN(CCCN1CCOCC1)C(=O)c1ccccc1)Nc1ccncc1` [Compound 1071, N-(8-(2-cyano-3-(pyridin-4-yl)guanidino)octyl)-N-(3-morpholinopropyl)benzamide]: the IC50 worked out at 0.049 nM.

In turn, `CC(C)S(=O)(=O)N(CCCCCCCCNC(=O)Nc1ccncc1)OCc1ccccc1` [Compound 1028, N-(Benzyloxy)-N-(8-(3-pyridin-4-ylureido)octyl)propane-2-sulfonamide] displayed an IC50 of 0.37 nM.

Take `O=c1c(NCCCCCCCCN(CCCN2CCOCC2)S(=O)(=O)C2CCCC2)c(Nc2ccncc2)c1=O` [Compound 1016, N-(8-(3,4-dioxo-2-(pyridin-4-ylamino)cyclobut-1-enylamino)octyl)-N-(3-morpholinopropyl)cyclopentanesulfonamide]: the IC50 worked out at 0.44 nM.

Consider `O=C(NCCCCCCCCN(CCCN1CCOCC1)S(=O)(=O)C1CCCCC1)NCc1cccnc1` [Compound 1013, N-(3-morpholinopropyl)-N-(8-(3-(pyridin-3-ylmethyl)ureido)octyl)cyclohexanesulfonamide], for which the midpoint of inhibition, the IC50, lay at 0.025 nM.

`CCS(=O)(=O)N(CCCCCCCNc1c(Nc2ccncc2)c(=O)c1=O)OCC1CCCCC1` [Compound 1061, N-(cyclohexylmethoxy)-N-(7-(3,4-dioxo-2-(pyridin-4-ylamino)cyclobut-1-enylamino)heptyl)ethanesulfonamide] registered an IC50 of 0.35 nM. This IC50 is about 14-fold higher than that of the molecule before.

In the case of `O=c1c(NCCCCCCCN(OC2CCCCO2)S(=O)(=O)Cc2ccccc2)c(Nc2ccncc2)c1=O` (stereo not shown) [Compound 1056, N-(7-(3,4-Dioxo-2-(pyridin-4-ylamino)cyclobut-1-enylamino)heptyl)-1-Phenyl-N-(tetrahydro-2H-pyran-2-yloxy)methanesulfonamide], it took 0.35 nM to reach half-maximal inhibition (IC50).

The molecule `O=C(NCCCCCCCN(CCCN1CCOCC1)S(=O)(=O)C1CCCC1)NCc1cccnc1` [Compound 1015, N-(3-morpholinopropyl)-N-(7-(3-(pyridin-3-ylmethyl)ureido)heptyl) cyclopentanesulfonamide] showed an IC50 of 0.1 nM.

Molecule `CCS(=O)(=O)N(CCCCCCN/C(=N\C#N)Nc1ccncc1)OCC1CCCCC1` [Compound 1138, N-(6-(2-cyano-3-(pyridin-4-yl)guanidino)hexyl)-N-(cyclohexylmethoxy)ethane-2-sulfonamide] had an IC50 of 0.059 nM.

The molecule `O=c1c(NCCCCCCCN(CCCN2CCOCC2)S(=O)(=O)C2CCCC2)c(Nc2ccncc2)c1=O` [Compound 1019, N-(7-(3,4-dioxo-2-(pyridin-4-ylamino)cyclobut-1-enylamino)heptyl)-N-(3-morpholinopropyl)cyclopentanesulfonamide] showed an IC50 of 0.44 nM. This IC50 is about 7.5-fold higher than that of the molecule before.

Molecule `CS(=O)(=O)N(CCCCCCCCNC(=O)/C=C/c1cccnc1)CCCN1CCOCC1` [Compound 1033, N-(8-(N-(3-morpholinopropyl)methylsulfonamido)octyl)-3-(pyridin-3-yl)acrylamide] came in with an IC50 of 1.17 nM. This IC50 is about 2.7-fold higher than that of the molecule before.

`N#C/N=C(\NCCCCCCCN(CCCN1CCOCC1)S(=O)(=O)C1CCCC1)Nc1ccncc1` [Compound 1011, N-(7-(2-cyano-3-(pyridin-4-yl)guanidino)heptyl)-N-(3-morpholinopropyl)cyclopentanesulfonamide] displayed an IC50 of 0.003 nM.

`CS(=O)(=O)N(CCCCCCCCNC(=O)NCc1cccnc1)OCc1ccccc1` [Compound 1022] came in with an IC50 of 0.8 nM.

As to `O=C(/C=C/c1cccnc1)NCCCCCCCN(OC1CCCCO1)S(=O)(=O)Cc1ccccc1` (stereo not shown) [Compound 1058, (E)-N-(7-(1-phenyl-N-(tetrahydro-2H-pyran-2-yloxy)methylsulfonamido)heptyl)-3-(pyridin-3-yl)acrylamide], it took 0.39 nM to reach half-maximal inhibition (IC50).
